Reference: ChEMBL document CHEMBL1201862, “PubChem BioAssay data set” (2004)
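Compound exposure: 48 hours, 5 concentrations, 96-well plates. At the GI50, growth is halved.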 Calls of active or inactive are those of the source. No stated cut-off is given here; in the data, active = GI50 up to about 1.1 µM and inactive = higher.

Columns and labels:
Assay in all cases: DTP human tumour cell line panel, 48 h
SW-620 = system: SW-620
Malme-3M = system: Malme-3M
MDA-MB-231 = system: MDA-MB-231
SF-295 = system: SF-295
NCI/ADR-RES = system: NCI/ADR-RES
HOP-62 = system: HOP-62
KM12 = system: KM12
ACHN = system: ACHN
COLO 205 = system: COLO 205
RPMI-8226 = system: RPMI-8226
K562 = system: K562
T47D = system: T47D
TK-10 = system: TK-10
CAKI-1 = system: CAKI-1
SK-MEL-28 = system: SK-MEL-28
OVCAR-8 = system: OVCAR-8
LOX IMVI = system: LOX IMVI
NCI-H460 = system: NCI-H460
MDA-MB-435 = system: MDA-MB-435
UACC-257 = system: UACC-257
SNB-19 = system: SNB-19
HOP-92 = system: HOP-92
PC-3 = system: PC-3
HCT-15 = system: HCT-15
EKVX = system: EKVX
MCF7 = system: MCF7
NCI-H226 = system: NCI-H226
NCI-H522 = system: NCI-H522
HT-29 = system: HT-29
A549 = system: A549
HCC 2998 = system: HCC 2998
OVCAR-4 = system: OVCAR-4
SR = system: SR
Hs-578T = system: Hs-578T
IGROV-1 = system: IGROV-1
SF-539 = system: SF-539
DU-145 = system: DU-145
M14 = system: M14
SF-268 = system: SF-268
SK-MEL-2 = system: SK-MEL-2
SN12C = system: SN12C
SK-OV-3 = system: SK-OV-3
OVCAR-5 = system: OVCAR-5
HCT-116 = system: HCT-116
MOLT-4 = system: MOLT-4
UACC-62 = system: UACC-62
MDA-N = system: MDA-N
CCRF-CEM = system: CCRF-CEM
786-0 = system: 786-0
SK-MEL-5 = system: SK-MEL-5
RXF 393 = system: RXF 393
U-251 = system: U-251
SNB-75 = system: SNB-75
A498 = system: A498
NCI-H23 = system: NCI-H23
UO-31 = system: UO-31
BT-549 = system: BT-549
OVCAR-3 = system: OVCAR-3
HL-60 = system: HL-60

Compound: CC1(C)O[C@H](C(=O)O)[C@@H](C(=O)O)O1
- GI50 (SW-620): > 100 µM (inactive)
- GI50 (Malme-3M): > 100 µM (inactive)
- GI50 (MDA-MB-231): > 100 µM (inactive)
- GI50 (SF-295): > 100 µM (inactive)
- GI50 (NCI/ADR-RES): > 100 µM (inactive)
- GI50 (HOP-62): > 100 µM (inactive)
- GI50 (KM12): > 100 µM (inactive)
- GI50 (ACHN): > 100 µM (inactive)
- GI50 (COLO 205): > 100 µM (inactive)
- GI50 (RPMI-8226): > 100 µM (inactive)
- GI50 (K562): > 100 µM (inactive)
- GI50 (T47D): > 100 µM (inactive)
- GI50 (TK-10): > 100 µM (inactive)
- GI50 (CAKI-1): > 100 µM (inactive)
- GI50 (SK-MEL-28): > 100 µM (inactive)
- GI50 (OVCAR-8): > 100 µM (inactive)
- GI50 (LOX IMVI): > 100 µM (inactive)
- GI50 (NCI-H460): > 100 µM (inactive)
- GI50 (MDA-MB-435): > 100 µM (inactive)
- GI50 (UACC-257): > 100 µM (inactive)
- GI50 (SNB-19): > 100 µM (inactive)
- GI50 (HOP-92): > 100 µM (inactive)
- GI50 (PC-3): > 100 µM (inactive)
- GI50 (HCT-15): > 100 µM
- GI50 (EKVX): > 100 µM (inactive)
- GI50 (MCF7): > 100 µM (inactive)
- GI50 (NCI-H226): > 100 µM (inactive)
- GI50 (NCI-H522): > 100 µM (inactive)
- GI50 (HT-29): > 100 µM (inactive)
- GI50 (A549): > 100 µM (inactive)
- GI50 (HCC 2998): > 100 µM (inactive)
- GI50 (OVCAR-4): > 100 µM (inactive)
- GI50 (SR): > 100 µM (inactive)
- GI50 (Hs-578T): > 100 µM (inactive)
- GI50 (IGROV-1): > 100 µM (inactive)
- GI50 (SF-539): > 100 µM (inactive)
- GI50 (DU-145): > 100 µM (inactive)
- GI50 (M14): > 100 µM (inactive)
- GI50 (SF-268): > 100 µM (inactive)
- GI50 (SK-MEL-2): > 100 µM (inactive)
- GI50 (SN12C): > 100 µM (inactive)
- GI50 (SK-OV-3): > 100 µM (inactive)
- GI50 (OVCAR-5): > 100 µM (inactive)
- GI50 (HCT-116): > 100 µM (inactive)
- GI50 (MOLT-4): > 100 µM (inactive)
- GI50 (UACC-62): > 100 µM (inactive)
- GI50 (MDA-N): > 100 µM (inactive)
- GI50 (CCRF-CEM): > 100 µM (inactive)
- GI50 (786-0): > 100 µM (inactive)
- GI50 (SK-MEL-5): > 100 µM (inactive)
- GI50 (RXF 393): > 100 µM (inactive)
- GI50 (U-251): > 100 µM (inactive)
- GI50 (SNB-75): > 100 µM (inactive)
- GI50 (A498): > 100 µM (inactive)

Compound: CCOC(=O)C1C(=O)CC(O)(OCC)C(C(=O)OCC)C1c1ccc(OC)cc1 (stereo not drawn)
- GI50 (NCI-H23): > 100 µM (inactive)
- GI50 (SW-620): > 100 µM (inactive)
- GI50 (Malme-3M): > 100 µM (inactive)
- GI50 (MDA-MB-231): > 100 µM (inactive)
- GI50 (SF-295): > 100 µM (inactive)
- GI50 (NCI/ADR-RES): > 100 µM (inactive)
- GI50 (HOP-62): > 100 µM (inactive)
- GI50 (KM12): > 100 µM (inactive)
- GI50 (ACHN): > 100 µM (inactive)
- GI50 (UO-31): > 100 µM (inactive)
- GI50 (COLO 205): > 100 µM (inactive)
- GI50 (K562): > 100 µM (inactive)
- GI50 (T47D): > 100 µM (inactive)
- GI50 (BT-549): > 100 µM (inactive)
- GI50 (TK-10): > 100 µM (inactive)
- GI50 (CAKI-1): > 100 µM (inactive)
- GI50 (SK-MEL-28): > 100 µM (inactive)
- GI50 (OVCAR-8): > 100 µM (inactive)
- GI50 (LOX IMVI): > 100 µM (inactive)
- GI50 (NCI-H460): > 100 µM (inactive)
- GI50 (MDA-MB-435): > 100 µM (inactive)
- GI50 (UACC-257): > 100 µM (inactive)
- GI50 (SNB-19): > 100 µM (inactive)
- GI50 (HOP-92): > 100 µM (inactive)
- GI50 (PC-3): > 100 µM (inactive)
- GI50 (HCT-15): > 100 µM
- GI50 (EKVX): > 100 µM (inactive)
- GI50 (MCF7): > 100 µM (inactive)
- GI50 (NCI-H226): > 100 µM (inactive)
- GI50 (NCI-H522): > 100 µM (inactive)
- GI50 (HT-29): > 100 µM (inactive)
- GI50 (OVCAR-3): > 100 µM (inactive)
- GI50 (A549): > 100 µM (inactive)
- GI50 (HCC 2998): > 100 µM (inactive)
- GI50 (OVCAR-4): > 100 µM (inactive)
- GI50 (SR): > 100 µM (inactive)
- GI50 (IGROV-1): > 100 µM (inactive)
- GI50 (DU-145): > 100 µM (inactive)
- GI50 (SF-268): > 100 µM (inactive)
- GI50 (SK-MEL-2): > 100 µM (inactive)
- GI50 (SN12C): > 100 µM (inactive)
- GI50 (OVCAR-5): > 100 µM (inactive)
- GI50 (HCT-116): > 100 µM (inactive)
- GI50 (MOLT-4): > 100 µM (inactive)
- GI50 (UACC-62): > 100 µM (inactive)
- GI50 (HL-60): > 100 µM (inactive)
- GI50 (MDA-N): > 100 µM (inactive)
- GI50 (CCRF-CEM): > 100 µM (inactive)
- GI50 (786-0): > 100 µM (inactive)
- GI50 (SK-MEL-5): > 100 µM (inactive)
- GI50 (RXF 393): > 100 µM (inactive)
- GI50 (U-251): > 100 µM (inactive)
- GI50 (SNB-75): > 100 µM (inactive)
- GI50 (A498): > 100 µM (inactive)
